Here are results for two compounds from patent EP4692071A1, “PHOTOCHROMIC COMPOUND, NAPHTHOL DERIVATIVE, CURABLE COMPOSITION, OPTICAL ARTICLE, LENS, AND EYEGLASS” (TOKUYAMA CORPORATION, priority 2023, dated 2024).

The first data set is described as follows: Maximum absorption wavelength (λmax) after color development, spectrophotometer MCPD3000. To be noted: binder sheet (binder method), urethaneurea resin photochromic layer between polycarbonate sheets, 0.25 mmol per 100 parts by mass resin. Type of data set: physicochemical. In outline:
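Read-out: absorbance at λmax, multichannel photodetector spectrophotometer. Colour density = ε(240) − ε(0), 240 s light, 23°C. τ1/2 = time for ε(240) − ε(0) to halve after light off. Residual rate compares density before and after 90 h xenon weathering.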
For `COc1ccc(C2(c3ccc(OC)cc3)C=Cc3c4c(c5cc(N(c6ccccc6)c6ccccc6)c(OC)cc5c3O2)-c2ccccc2C4(C)C)cc1` [Example 2 Formula (30)], the “Maximum absorption wavelength (nm)” value was determined as 510 nm.

Take `CCCCC1(CCCC)c2ccccc2-c2c1c1c(c3cc(OC)c(N(c4ccc(F)cc4)c4ccc(F)cc4)cc23)OC(c2ccc(OC)cc2)(c2ccc(OC)cc2)C=C1` [Example 12 Formula (66)]: the “Maximum absorption wavelength (nm)” value was determined as 501 nm.

The data set is the same for the next values; noted with them: photochromic cured product by kneading method, 1 mm thick thiourethane, 0.106 mmol per 100 g monomers.
As for `COc1ccc(C2(c3ccc(OC)cc3)C=Cc3c4c(c5cc(N(c6ccccc6)c6ccccc6)c(OC)cc5c3O2)-c2ccccc2C4(C)C)cc1` [Example 2 Formula (30)], the “Maximum absorption wavelength (nm)” value was found to be 514 nm.

The same data set, now with this note: photochromic laminate by coating method, 40 µm photochromic layer on thiourethane lens, 0.25 mmol compound per 100 g monomers.
For `COc1ccc(C2(c3ccc(OC)cc3)C=Cc3c4c(c5cc(N(c6ccccc6)c6ccccc6)c(OC)cc5c3O2)-c2ccccc2C4(C)C)cc1` [Example 2 Formula (30)], the “Maximum absorption wavelength (nm)” value was found to be 510 nm.

`CCCCC1(CCCC)c2ccccc2-c2c1c1c(c3cc(OC)c(N(c4ccc(F)cc4)c4ccc(F)cc4)cc23)OC(c2ccc(OC)cc2)(c2ccc(OC)cc2)C=C1` [Example 12 Formula (66)]: the “Maximum absorption wavelength (nm)” value is recorded as 501 nm.

A further data set in a line: 23°C color optical density (A23): absorbancy difference ε(240)-ε(0) after 240 s light irradiation at 23°C. The note with it: binder sheet (binder method), 240 s irradiation. It is filed as physicochemical. In outline: (§1)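 Photochromic plastic lens samples were irradiated for 240 s at 23°C, and colour density was taken as the absorbance change at the absorption maximum. Fading half-life was timed from the end of irradiation until that absorbance change fell by half. Durability compared colour density before and after xenon-lamp ageing.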
With `COc1ccc(C2(c3ccc(OC)cc3)C=Cc3c4c(c5cc(N(c6ccccc6)c6ccccc6)c(OC)cc5c3O2)-c2ccccc2C4(C)C)cc1` [Example 2 Formula (30)], the “A23 (-)” value is recorded as 1.52 -.

`CCCCC1(CCCC)c2ccccc2-c2c1c1c(c3cc(OC)c(N(c4ccc(F)cc4)c4ccc(F)cc4)cc23)OC(c2ccc(OC)cc2)(c2ccc(OC)cc2)C=C1` [Example 12 Formula (66)]: the “A23 (-)” value is recorded as 1.40 -.

Still in this data set, the particulars now being: cured product by kneading method, 1 mm, 240 s irradiation.
Turning to `COc1ccc(C2(c3ccc(OC)cc3)C=Cc3c4c(c5cc(N(c6ccccc6)c6ccccc6)c(OC)cc5c3O2)-c2ccccc2C4(C)C)cc1` [Example 2 Formula (30)], the “A23 (-)” value was 1.51 -.

Still in this data set, the particulars now being: photochromic laminate by coating method, 240 s irradiation, at the maximum absorption wavelength.
Regarding `COc1ccc(C2(c3ccc(OC)cc3)C=Cc3c4c(c5cc(N(c6ccccc6)c6ccccc6)c(OC)cc5c3O2)-c2ccccc2C4(C)C)cc1` [Example 2 Formula (30)], the “A23 (-)” value was 1.49 -.

Consider `CCCCC1(CCCC)c2ccccc2-c2c1c1c(c3cc(OC)c(N(c4ccc(F)cc4)c4ccc(F)cc4)cc23)OC(c2ccc(OC)cc2)(c2ccc(OC)cc2)C=C1` [Example 12 Formula (66)], for which the “A23 (-)” value is given as 1.38 -.

A further data set in a line: 35°C color optical density (A35): absorbancy difference ε(240)-ε(0) after 240 s light irradiation at 35°C. It is filed as physicochemical. To be noted: binder sheet (binder method), 240 s irradiation. Summed up: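 A photochromic cured product was irradiated with light at 35°C for 240 seconds. The 35°C color optical density (A35) was the absorbancy after irradiation {ε(240)} minus the absorbancy without irradiation ε(0), read at the first and second absorption wavelengths. It served as an indicator of color optical density.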
On to `COc1ccc(C2(c3ccc(OC)cc3)C=Cc3c4c(c5cc(N(c6ccccc6)c6ccccc6)c(OC)cc5c3O2)-c2ccccc2C4(C)C)cc1` [Example 2 Formula (30)], for which the “A35 (-)” value was 1.07 -.

On to `CCCCC1(CCCC)c2ccccc2-c2c1c1c(c3cc(OC)c(N(c4ccc(F)cc4)c4ccc(F)cc4)cc23)OC(c2ccc(OC)cc2)(c2ccc(OC)cc2)C=C1` [Example 12 Formula (66)], for which the “A35 (-)” value is on record as 0.93 -.

The data set is the same for the next values; noted with them: cured product by kneading method, 1 mm, 240 s irradiation.
As for `COc1ccc(C2(c3ccc(OC)cc3)C=Cc3c4c(c5cc(N(c6ccccc6)c6ccccc6)c(OC)cc5c3O2)-c2ccccc2C4(C)C)cc1` [Example 2 Formula (30)], the “A35 (-)” value was 1.07 -.

The same data set, now with this note: photochromic laminate by coating method, 240 s irradiation.
`COc1ccc(C2(c3ccc(OC)cc3)C=Cc3c4c(c5cc(N(c6ccccc6)c6ccccc6)c(OC)cc5c3O2)-c2ccccc2C4(C)C)cc1` [Example 2 Formula (30)]: the “A35 (-)” value was 1.05 -.

Consider `CCCCC1(CCCC)c2ccccc2-c2c1c1c(c3cc(OC)c(N(c4ccc(F)cc4)c4ccc(F)cc4)cc23)OC(c2ccc(OC)cc2)(c2ccc(OC)cc2)C=C1` [Example 12 Formula (66)], for which the “A35 (-)” value is on record as 0.92 -.

A short description of the next data set: High-temperature color development rate (A35/A23×100), temperature dependency. To be noted: binder sheet (binder method). It is filed as physicochemical. In outline:
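Color optical density was taken as the absorbance after 240 seconds of light irradiation, ε(240), minus the absorbance without irradiation, ε(0), at the absorption maximum. It was measured at 23°C (A23) and at 35°C (A35), and the ratio A35/A23×100 served as the high-temperature color development rate, showing temperature dependency.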
As to `COc1ccc(C2(c3ccc(OC)cc3)C=Cc3c4c(c5cc(N(c6ccccc6)c6ccccc6)c(OC)cc5c3O2)-c2ccccc2C4(C)C)cc1` [Example 2 Formula (30)], the “A35/A23 *100 (%)” value is 70%.

With `CCCCC1(CCCC)c2ccccc2-c2c1c1c(c3cc(OC)c(N(c4ccc(F)cc4)c4ccc(F)cc4)cc23)OC(c2ccc(OC)cc2)(c2ccc(OC)cc2)C=C1` [Example 12 Formula (66)], the “A35/A23 *100 (%)” value was determined as 67%.

The same data set, now with this note: cured product by kneading method, 1 mm.
As to `COc1ccc(C2(c3ccc(OC)cc3)C=Cc3c4c(c5cc(N(c6ccccc6)c6ccccc6)c(OC)cc5c3O2)-c2ccccc2C4(C)C)cc1` [Example 2 Formula (30)], the “A35/A23 *100 (%)” value was 71%.

Still in this data set, the particulars now being: photochromic laminate by coating method.
Regarding `COc1ccc(C2(c3ccc(OC)cc3)C=Cc3c4c(c5cc(N(c6ccccc6)c6ccccc6)c(OC)cc5c3O2)-c2ccccc2C4(C)C)cc1` [Example 2 Formula (30)], the “A35/A23 *100 (%)” value is reported as 70%.

With `CCCCC1(CCCC)c2ccccc2-c2c1c1c(c3cc(OC)c(N(c4ccc(F)cc4)c4ccc(F)cc4)cc23)OC(c2ccc(OC)cc2)(c2ccc(OC)cc2)C=C1` [Example 12 Formula (66)], the “A35/A23 *100 (%)” value is on record as 67%.

A short description of a further data set: Residual rate (A90/A0×100) after 90 h accelerated deterioration in xenon weather meter X25, color developing durability. Type of data set: physicochemical. The note with it: binder sheet (binder method); xenon weather meter 90 hours. In outline:
as §1
Take `COc1ccc(C2(c3ccc(OC)cc3)C=Cc3c4c(c5cc(N(c6ccccc6)c6ccccc6)c(OC)cc5c3O2)-c2ccccc2C4(C)C)cc1` [Example 2 Formula (30)]: the “Residual rate (%)” value came out at 94%.

On to `CCCCC1(CCCC)c2ccccc2-c2c1c1c(c3cc(OC)c(N(c4ccc(F)cc4)c4ccc(F)cc4)cc23)OC(c2ccc(OC)cc2)(c2ccc(OC)cc2)C=C1` [Example 12 Formula (66)], for which the “Residual rate (%)” value is given as 94%.

The data set is the same for the next values; noted with them: cured product by kneading method, 1 mm; xenon weather meter 90 hours.
`COc1ccc(C2(c3ccc(OC)cc3)C=Cc3c4c(c5cc(N(c6ccccc6)c6ccccc6)c(OC)cc5c3O2)-c2ccccc2C4(C)C)cc1` [Example 2 Formula (30)]: the “Residual rate (%)” value stood at 88%.

Still in this data set, the particulars now being: photochromic laminate by coating method; xenon weather meter 90 hours.
Regarding `COc1ccc(C2(c3ccc(OC)cc3)C=Cc3c4c(c5cc(N(c6ccccc6)c6ccccc6)c(OC)cc5c3O2)-c2ccccc2C4(C)C)cc1` [Example 2 Formula (30)], the “Residual rate (%)” value came out at 82%.

For the compound `CCCCC1(CCCC)c2ccccc2-c2c1c1c(c3cc(OC)c(N(c4ccc(F)cc4)c4ccc(F)cc4)cc23)OC(c2ccc(OC)cc2)(c2ccc(OC)cc2)C=C1` [Example 12 Formula (66)], the “Residual rate (%)” value was 81%.
